Source: patent publication US20250163104A1, “MACROCYCLIC IMMUNOMODULATORS” (priority 2021, published 2025)
Where a SMILES comes first, the peptide text is derived from it. Bridges are numbered along the chain shown (N, C = ends). [ ]: non-standard residue; d: D form. The star is where a group is joined. ξ: configuration not given here. Phe(4-COOH) = N[C@@H](Cc1ccc(C(=O)O)cc1)C(=O)O; Bip = N[C@@H](Cc1ccc(-c2ccccc2)cc1)C(=O)O; Phe(3-Me) = Cc1cccc(C[C@H](N)C(=O)O)c1; Val(3-OH) = CC(C)(O)[C@H](N)C(=O)O; 4Pal = N[C@@H](Cc1ccncc1)C(=O)O; Cha = N[C@@H](CC1CCCCC1)C(=O)O; Ile(3ξ) = CCC(C)[C@H](N)C(=O)O; Carboxymethyl = O=C(O)C*; Orn = NCCC[C@H](N)C(=O)O; Pra = C#CC[C@H](N)C(=O)O; Dab = NCC[C@H](N)C(=O)O; Dap = NC[C@H](N)C(=O)O

Biological target: T1, human PD-1 / PD-L1-Ig binding on Jurkat cell line over-expressing human PD-1 (Jurkat-PD-1) (Homo sapiens, UniProt Q15116)
T1 construct: expressed in transfected cells; host or cells: Jurkat
T1 sequence (Q15116 25-288): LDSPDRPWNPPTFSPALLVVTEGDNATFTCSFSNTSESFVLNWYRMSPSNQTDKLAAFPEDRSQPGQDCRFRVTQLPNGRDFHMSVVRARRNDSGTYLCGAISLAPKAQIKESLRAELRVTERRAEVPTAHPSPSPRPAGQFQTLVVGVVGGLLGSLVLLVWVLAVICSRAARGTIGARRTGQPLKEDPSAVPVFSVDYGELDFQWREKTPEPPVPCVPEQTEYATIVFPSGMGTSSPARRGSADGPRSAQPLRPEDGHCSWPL
Assay: Jurkat-PD-1 Cell Binding High-Content Screening Assay (CBA)
Format: cell-based
Conditions: Jurkat-PD-1 cells, PE-labeled PD-L1-Ig 20 nM final; read-out: Jurkat HPD1_PDL1 IC50
How it was run: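 Read-out: high-content imaging of PE-tagged PD-L1-Ig bound to Jurkat cells overexpressing human PD-1, after fixation with 4% paraformaldehyde and Hoechst 33342 nuclear staining. Ligand was used at 20 nM final for 1 hour, after a 2 h compound exposure at 37° C in serum-containing DMEM.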

Row | SMILES | IC50
1 | Cc1cccc(C[C@@H]2NC(=O)[C@H](CC(=O)O)NC(=O)[C@H](Cc3ccc(C(=O)O)cc3)NC(=O)[C@H](Cc3ccncc3)NC(=O)CSC[C@@H](C(=O)N[C@@H](CC(N)=O)C(N)=O)NC(=O)[C@H](CCC(=O)O)NC(=O)[C@H](C(C)C)NC(=O)[C@H](CC3CCCCC3)NC(=O)[C@H](CCN)NC(=O)[C@@H](CC(C)C)NC(=O)[C@H](CCCN)NC(=O)[C@H](Cc3ccc(OCC(=O)O)cc3)NC(=O)[C@H](Cc3ccc(-c4ccccc4)cc3)NC(=O)[C@H](Cc3ccc(OCC(=O)O)cc3)NC2=O)c1 [Compound 2304] ({CH2CO}-[4Pal][Phe(4-COOH)]D[Phe(3-Me)]Y(Carboxymethyl)[Bip]Y(Carboxymethyl)[Orn][dL][Dab][Cha]VECN-NH2; thioether N-14) | 15 nM
2 | Cc1cccc(C[C@@H]2NC(=O)[C@H](CC(=O)O)NC(=O)[C@H](Cc3ccc(C(=O)O)cc3)NC(=O)[C@H](Cc3ccncc3)NC(=O)CSC[C@@H](C(=O)N[C@@H](CC(N)=O)C(N)=O)NC(=O)[C@H](CCC(N)=O)NC(=O)[C@H](C(C)C)NC(=O)[C@H](CC3CCCCC3)NC(=O)[C@H](CCN)NC(=O)[C@@H](CC(C)C)NC(=O)[C@H](CCCN)NC(=O)[C@H](Cc3ccc(OCC(=O)O)cc3)NC(=O)[C@H](Cc3ccc(-c4ccccc4)cc3)NC(=O)[C@H](Cc3ccc(OCC(=O)O)cc3)NC2=O)c1 [Compound 2305] ({CH2CO}-[4Pal][Phe(4-COOH)]D[Phe(3-Me)]Y(Carboxymethyl)[Bip]Y(Carboxymethyl)[Orn][dL][Dab][Cha]VQCN-NH2; thioether N-14) | 10.2 nM
3 | Cc1cccc(C[C@@H]2NC(=O)[C@H](CC(=O)O)NC(=O)[C@H](Cc3ccc(C(=O)O)cc3)NC(=O)[C@H](Cc3ccncc3)NC(=O)CSC[C@@H](C(=O)N[C@@H](CCN)C(N)=O)NC(=O)[C@H]([C@@H](C)O)NC(=O)[C@H](C(C)C)NC(=O)[C@H](CC3CCCCC3)NC(=O)[C@H](CCN)NC(=O)[C@@H](CC(C)C)NC(=O)[C@H](CCCN)NC(=O)[C@H](Cc3ccc(OCC(=O)O)cc3)NC(=O)[C@H](Cc3ccc(-c4ccccc4)cc3)NC(=O)[C@H](Cc3ccc(OCC(=O)O)cc3)NC2=O)c1 [Compound 2306] ({CH2CO}-[4Pal][Phe(4-COOH)]D[Phe(3-Me)]Y(Carboxymethyl)[Bip]Y(Carboxymethyl)[Orn][dL][Dab][Cha]VTC[Dab]-NH2; thioether N-14) | 7.1 nM
4 | Cc1cccc(C[C@@H]2NC(=O)[C@H](CC(=O)O)NC(=O)[C@H](Cc3ccc(C(=O)O)cc3)NC(=O)[C@H](Cc3ccncc3)NC(=O)CSC[C@@H](C(=O)N[C@@H](CCN)C(N)=O)NC(=O)[C@H](CO)NC(=O)[C@H](C(C)C)NC(=O)[C@H](CC3CCCCC3)NC(=O)[C@H](CCN)NC(=O)[C@@H](CC(C)C)NC(=O)[C@H](CCCN)NC(=O)[C@H](Cc3ccc(OCC(=O)O)cc3)NC(=O)[C@H](Cc3ccc(-c4ccccc4)cc3)NC(=O)[C@H](Cc3ccc(OCC(=O)O)cc3)NC2=O)c1 [Compound 2307] ({CH2CO}-[4Pal][Phe(4-COOH)]D[Phe(3-Me)]Y(Carboxymethyl)[Bip]Y(Carboxymethyl)[Orn][dL][Dab][Cha]VSC[Dab]-NH2; thioether N-14) | 12.1 nM
5 | Cc1cccc(C[C@@H]2NC(=O)[C@H](CC(=O)O)NC(=O)[C@H](Cc3ccc(C(=O)O)cc3)NC(=O)[C@H](Cc3ccncc3)NC(=O)CSC[C@@H](C(=O)N[C@@H](CCN)C(N)=O)NC(=O)[C@H](CCC(=O)O)NC(=O)[C@H](C(C)C)NC(=O)[C@H](CC3CCCCC3)NC(=O)[C@H](CCN)NC(=O)[C@@H](CC(C)C)NC(=O)[C@H](CCCN)NC(=O)[C@H](Cc3ccc(OCC(=O)O)cc3)NC(=O)[C@H](Cc3ccc(-c4ccccc4)cc3)NC(=O)[C@H](Cc3ccc(OCC(=O)O)cc3)NC2=O)c1 [Compound 2308] ({CH2CO}-[4Pal][Phe(4-COOH)]D[Phe(3-Me)]Y(Carboxymethyl)[Bip]Y(Carboxymethyl)[Orn][dL][Dab][Cha]VEC[Dab]-NH2; thioether N-14) | 7.5 nM
6 | Cc1cccc(C[C@@H]2NC(=O)[C@H](CC(=O)O)NC(=O)[C@H](Cc3ccc(C(=O)O)cc3)NC(=O)[C@H](Cc3ccncc3)NC(=O)CSC[C@@H](C(=O)N[C@@H](CCN)C(N)=O)NC(=O)[C@H](CCC(N)=O)NC(=O)[C@H](C(C)C)NC(=O)[C@H](CC3CCCCC3)NC(=O)[C@H](CCN)NC(=O)[C@@H](CC(C)C)NC(=O)[C@H](CCCN)NC(=O)[C@H](Cc3ccc(OCC(=O)O)cc3)NC(=O)[C@H](Cc3ccc(-c4ccccc4)cc3)NC(=O)[C@H](Cc3ccc(OCC(=O)O)cc3)NC2=O)c1 [Compound 2309] ({CH2CO}-[4Pal][Phe(4-COOH)]D[Phe(3-Me)]Y(Carboxymethyl)[Bip]Y(Carboxymethyl)[Orn][dL][Dab][Cha]VQC[Dab]-NH2; thioether N-14) | 5.9 nM
7 | Cc1cccc(C[C@@H]2NC(=O)[C@H](CC(=O)O)NC(=O)[C@H](Cc3ccc(C(=O)O)cc3)NC(=O)[C@H](Cc3ccncc3)NC(=O)CSC[C@@H](C(=O)N[C@@H](CO)C(N)=O)NC(=O)[C@H]([C@@H](C)O)NC(=O)[C@H](C(C)C)NC(=O)[C@H](CC3CCCCC3)NC(=O)[C@H](CCN)NC(=O)[C@@H](CC(C)C)NC(=O)[C@H](CCCN)NC(=O)[C@H](Cc3ccc(OCC(=O)O)cc3)NC(=O)[C@H](Cc3ccc(-c4ccccc4)cc3)NC(=O)[C@H](Cc3ccc(OCC(=O)O)cc3)NC2=O)c1 [Compound 2310] ({CH2CO}-[4Pal][Phe(4-COOH)]D[Phe(3-Me)]Y(Carboxymethyl)[Bip]Y(Carboxymethyl)[Orn][dL][Dab][Cha]VTCS-NH2; thioether N-14) | 7.6 nM
8 | Cc1cccc(C[C@@H]2NC(=O)[C@H](CC(=O)O)NC(=O)[C@H](Cc3ccc(C(=O)O)cc3)NC(=O)[C@H](Cc3ccncc3)NC(=O)CSC[C@@H](C(=O)N[C@@H](CO)C(N)=O)NC(=O)[C@H](CCC(=O)O)NC(=O)[C@H](C(C)C)NC(=O)[C@H](CC3CCCCC3)NC(=O)[C@H](CCN)NC(=O)[C@@H](CC(C)C)NC(=O)[C@H](CCCN)NC(=O)[C@H](Cc3ccc(OCC(=O)O)cc3)NC(=O)[C@H](Cc3ccc(-c4ccccc4)cc3)NC(=O)[C@H](Cc3ccc(OCC(=O)O)cc3)NC2=O)c1 [Compound 2311] ({CH2CO}-[4Pal][Phe(4-COOH)]D[Phe(3-Me)]Y(Carboxymethyl)[Bip]Y(Carboxymethyl)[Orn][dL][Dab][Cha]VECS-NH2; thioether N-14) | 11.7 nM
9 | Cc1cccc(C[C@@H]2NC(=O)[C@H](CC(=O)O)NC(=O)[C@H](Cc3ccc(C(=O)O)cc3)NC(=O)[C@H](Cc3ccncc3)NC(=O)CSC[C@@H](C(=O)N[C@@H](CO)C(N)=O)NC(=O)[C@H](CCC(N)=O)NC(=O)[C@H](C(C)C)NC(=O)[C@H](CC3CCCCC3)NC(=O)[C@H](CCN)NC(=O)[C@@H](CC(C)C)NC(=O)[C@H](CCCN)NC(=O)[C@H](Cc3ccc(OCC(=O)O)cc3)NC(=O)[C@H](Cc3ccc(-c4ccccc4)cc3)NC(=O)[C@H](Cc3ccc(OCC(=O)O)cc3)NC2=O)c1 [Compound 2312] ({CH2CO}-[4Pal][Phe(4-COOH)]D[Phe(3-Me)]Y(Carboxymethyl)[Bip]Y(Carboxymethyl)[Orn][dL][Dab][Cha]VQCS-NH2; thioether N-14) | 7.9 nM
10 | Cc1cccc(C[C@@H]2NC(=O)[C@H](CC(=O)O)NC(=O)[C@H](Cc3ccc(C(=O)O)cc3)NC(=O)[C@H](Cc3ccncc3)NC(=O)CSC[C@@H](C(=O)N[C@H](CC(N)=O)C(N)=O)NC(=O)[C@H](CO)NC(=O)[C@H](C(C)C)NC(=O)[C@H](CC3CCCCC3)NC(=O)[C@H](CCN)NC(=O)[C@@H](CC(C)C)NC(=O)[C@H](CCCN)NC(=O)[C@H](Cc3ccc(OCC(=O)O)cc3)NC(=O)[C@H](Cc3ccc(-c4ccccc4)cc3)NC(=O)[C@H](Cc3ccc(OCC(=O)O)cc3)NC2=O)c1 [Compound 2313] ({CH2CO}-[4Pal][Phe(4-COOH)]D[Phe(3-Me)]Y(Carboxymethyl)[Bip]Y(Carboxymethyl)[Orn][dL][Dab][Cha]VSC[dN]-NH2; thioether N-14) | 13.1 nM
11 | Cc1cccc(C[C@@H]2NC(=O)[C@H](CC(=O)O)NC(=O)[C@H](Cc3ccc(C(=O)O)cc3)NC(=O)[C@H](Cc3ccncc3)NC(=O)CSC[C@@H](C(=O)N[C@H](CC(N)=O)C(N)=O)NC(=O)[C@H](CCC(=O)O)NC(=O)[C@H](C(C)C)NC(=O)[C@H](CC3CCCCC3)NC(=O)[C@H](CCN)NC(=O)[C@@H](CC(C)C)NC(=O)[C@H](CCCN)NC(=O)[C@H](Cc3ccc(OCC(=O)O)cc3)NC(=O)[C@H](Cc3ccc(-c4ccccc4)cc3)NC(=O)[C@H](Cc3ccc(OCC(=O)O)cc3)NC2=O)c1 [Compound 2314] ({CH2CO}-[4Pal][Phe(4-COOH)]D[Phe(3-Me)]Y(Carboxymethyl)[Bip]Y(Carboxymethyl)[Orn][dL][Dab][Cha]VEC[dN]-NH2; thioether N-14) | 45.8 nM
12 | CCC(C)[C@@H]1NC(=O)[C@H](Cc2ccc(-c3ccccc3)cc2)NC(=O)[C@H](Cc2ccc(OCC(=O)O)cc2)NC(=O)[C@H](Cc2cccc(C)c2)NC(=O)[C@H](CC(=O)O)NC(=O)[C@H](Cc2ccc(C(=O)O)cc2)NC(=O)[C@H](Cc2ccncc2)NC(=O)CSC[C@@H](C(=O)N[C@@H](CC(N)=O)C(N)=O)NC(=O)[C@H]([C@@H](C)O)NC(=O)[C@H](C(C)C)NC(=O)[C@H](CC2CCCCC2)NC(=O)[C@H](CCN)NC(=O)[C@@H](CC(C)C)NC(=O)[C@H](CCCN)NC1=O (stereo partly drawn) [Compound 2315] ({CH2CO}-[4Pal][Phe(4-COOH)]D[Phe(3-Me)]Y(Carboxymethyl)[Bip][Ile(3ξ)][Orn][dL][Dab][Cha]VTCN-NH2; thioether N-14) | 33.1 nM
13 | C#CC[C@H](NC(=O)[C@H](CCN)NC(=O)[C@@H]1CSCC(=O)N[C@@H](CN)C(=O)N[C@@H](Cc2ccc(OCC(=O)O)cc2)C(=O)N[C@@H](CC(=O)O)C(=O)N[C@@H](Cc2cccc(C)c2)C(=O)N[C@@H](Cc2ccc(OCC(=O)O)cc2)C(=O)N[C@@H](Cc2ccc(-c3ccccc3)cc2)C(=O)N[C@@H](Cc2ccc(OCC(=O)O)cc2)C(=O)N[C@@H](CCCN)C(=O)N[C@H](CC(C)C)C(=O)N[C@@H](CCN)C(=O)N[C@@H](CC2CCCCC2)C(=O)N[C@@H](C(C)(C)O)C(=O)N[C@@H](CO)C(=O)N1)C(=O)O [Compound 2316] ({CH2CO}-[Dap]Y(Carboxymethyl)D[Phe(3-Me)]Y(Carboxymethyl)[Bip]Y(Carboxymethyl)[Orn][dL][Dab][Cha][Val(3-OH)]SC[Dab][Pra]-OH; thioether N-14) | 6.5 nM
